pIC50: −log10 of the molar value.
Experiments:
[1] = molecular target: T1, Capsid scaffolding protein (Human cytomegalovirus (strain AD169) (HHV-5) (Human herpesvirus 5), UniProt P16753); experiment: Inhibitory concentration against HCMV protease.; assay type: functional, Human herpesvirus 5 strain AD169
T1 sequence (P16753 whole entry): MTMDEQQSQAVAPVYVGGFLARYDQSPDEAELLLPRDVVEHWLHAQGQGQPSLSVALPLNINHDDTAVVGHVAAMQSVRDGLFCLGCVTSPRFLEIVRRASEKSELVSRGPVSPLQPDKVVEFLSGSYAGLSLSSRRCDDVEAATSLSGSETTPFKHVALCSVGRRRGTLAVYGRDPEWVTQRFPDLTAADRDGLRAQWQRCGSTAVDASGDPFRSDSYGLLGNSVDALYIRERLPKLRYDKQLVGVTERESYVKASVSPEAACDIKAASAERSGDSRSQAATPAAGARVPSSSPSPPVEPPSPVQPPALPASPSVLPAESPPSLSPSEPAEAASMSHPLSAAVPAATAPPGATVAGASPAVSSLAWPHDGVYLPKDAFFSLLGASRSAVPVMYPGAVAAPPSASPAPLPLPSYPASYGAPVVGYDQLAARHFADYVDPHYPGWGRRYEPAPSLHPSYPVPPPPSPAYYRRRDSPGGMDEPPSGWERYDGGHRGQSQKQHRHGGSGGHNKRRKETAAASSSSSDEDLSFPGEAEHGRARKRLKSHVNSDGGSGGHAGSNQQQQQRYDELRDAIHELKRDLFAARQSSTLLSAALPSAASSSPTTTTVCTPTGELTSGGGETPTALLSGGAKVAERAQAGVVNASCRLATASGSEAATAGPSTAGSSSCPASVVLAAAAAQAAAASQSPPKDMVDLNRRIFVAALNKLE

[2] = Compound was tested for inhibition of chymotrypsinogen
[3] = molecular target: Serine protease 1 (Homo sapiens) (UniProt P07477); experiment: Compound was tested for inhibition of trypsin
Chain of Serine protease 1 (Homo sapiens) (P07477 whole entry): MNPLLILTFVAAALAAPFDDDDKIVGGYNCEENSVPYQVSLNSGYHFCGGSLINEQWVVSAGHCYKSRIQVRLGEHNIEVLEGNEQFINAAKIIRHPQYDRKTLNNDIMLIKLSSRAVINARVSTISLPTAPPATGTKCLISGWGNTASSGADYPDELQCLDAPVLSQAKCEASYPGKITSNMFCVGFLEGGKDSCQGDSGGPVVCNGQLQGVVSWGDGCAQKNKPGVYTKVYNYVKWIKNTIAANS

[4] = Inhibitory concentration against elastase; assay type: functional

| SMILES | pIC50 [1] | Activity [2] | Activity [3] | pIC50 [4] |
| --- | --- | --- | --- | --- |
| O=C(O)c1ccc(CNc2ccc3c(COc4cccc(Cl)c4)cccc3c2)cc1 | 5.51 | > 50 µM | > 80 µM | – |
| O=C(O)c1ccc(C(=O)Nc2ccc3c(COc4cccc(C(F)(F)F)c4)cccc3c2)cc1 | 4.82 | – | – | – |
| O=S(=O)(Nc1ccc2c(/C=C/c3cccc(C(F)(F)F)c3)cccc2c1)C(F)(F)F | 5.19 | – | – | < 4.30 |
| O=S(=O)(Nc1ccc2c(/C=C/c3cc(Cl)c4ccccc4n3)cccc2c1)C(F)(F)F | 4.98 | – | – | < 4.30 |
| Cc1ccc(S(=O)(=O)NC(=O)Nc2ccc3c(/C=C/c4ccc5ccc(Cl)cc5n4)cccc3c2)cc1 | 5.08 | – | – | – |
| Cc1ccc2nc(/C=C/c3cccc4cc(NS(=O)(=O)C(F)(F)F)ccc34)ccc2c1 | 5.20 | – | – | < 4.30 |
| O=S(=O)(Nc1ccc2c(/C=C/c3ccccn3)cccc2c1)C(F)(F)F | 4.18 | > 160 µM | – | < 4.30 |
| CC(=O)Nc1ccc2c(/C=C/c3ccc4cc(Cl)ccc4n3)cccc2c1 | 4.37 | – | – | – |
| O=C(O)c1ccc(CNc2ccc3c(/C=C/c4cccc(C(F)(F)F)c4)cccc3c2)cc1 | 5.16 | – | – | – |
| O=S(=O)(Nc1ccc2c(/C=C/c3ccc4ccccc4c3)cccc2c1)C(F)(F)F | 4.82 | – | – | < 4.30 |
| O=S(=O)(Nc1ccc2c(/C=C/c3ccc4ccccc4n3)cccc2c1)C(F)(F)F | 5.02 | – | – | < 4.30 |
| Nc1ccc2c(/C=C/c3ccc4ccc(Cl)cc4n3)cccc2c1 | < 4.30 | – | – | – |
| CN(C)c1ccc2nc(/C=C/c3cccc4cc(NS(=O)(=O)C(F)(F)F)ccc34)ccc2c1 | 5.43 | – | – | < 4.30 |
| O=C(O)c1ccc(C(=O)Nc2ccc3c(OCc4cccc(Br)c4)cccc3c2)cc1 | 5.21 | > 50 µM | > 80 µM | – |
| O=S(=O)(Nc1ccc2c(/C=C/c3ccc4cccc(Cl)c4n3)cccc2c1)C(F)(F)F | 5.49 | – | – | < 4.30 |
| COc1cccc(/C=C/c2cccc3cc(NS(=O)(=O)C(F)(F)F)ccc23)c1 | 5.18 | – | – | < 4.30 |
| O=C(Nc1ccc2c(/C=C/c3ccc4cc(Cl)ccc4n3)cccc2c1)Oc1ccccc1 | < 4.30 | – | – | – |
| O=C(Nc1ccc2c(/C=C/c3ccc4ccc(Cl)cc4n3)cccc2c1)NS(=O)(=O)c1ccccc1 | 5.17 | – | – | – |
| O=C(O)c1ccc(CNc2ccc3c(COc4ccccc4)cccc3c2)cc1 | 5.32 | > 50 µM | > 80 µM | – |

| SMILES | pIC50 [1] | Activity [2] | Activity [3] | pIC50 [4] |
| --- | --- | --- | --- | --- |
| O=C(O)c1ccc(C(=O)Nc2ccc3c(/C=C/c4ccc5ccc(Cl)cc5n4)cccc3c2)cc1 | 4.76 | – | – | – |
| O=S(=O)(Nc1ccc2c(/C=C/c3ccc4ccc(Cl)cc4n3)cccc2c1)C(F)(F)F | 4.82 | – | – | < 4.30 |
| COc1ccc2nc(/C=C/c3cccc4cc(NS(=O)(=O)C(F)(F)F)ccc34)ccc2c1 | 5.47 | – | – | < 4.30 |
| O=C(O)c1ccc(C(=O)Nc2ccc3c(/C=C/c4cccc(C(F)(F)F)c4)cccc3c2)cc1 | 5.16 | – | – | – |
| O=S(=O)(Nc1ccc2c(/C=C/c3ccc4cc(Cl)ccc4n3)cccc2c1)C(F)(F)F | 5.49 | – | – | < 4.30 |
| O=S(=O)(Nc1ccc2c(/C=C/c3ccc(Cl)cc3)cccc2c1)C(F)(F)F | 5.37 | – | – | < 4.30 |
| O=C(Nc1ccc2c(/C=C/c3ccc4ccc(Cl)cc4n3)cccc2c1)c1ccccc1 | < 4.30 | – | – | – |
| O=C(O)c1ccc(C(=O)Nc2ccc3c(COc4ccc(Br)cc4)cccc3c2)cc1 | 4.67 | – | – | – |
| O=C(O)c1ccc(C(=O)Nc2ccc3c(COc4cccc(Cl)c4)cccc3c2)cc1 | 4.82 | – | – | – |
| O=C(O)c1ccc2c(/C=C/c3ccc4ccccc4n3)cccc2c1 | < 4.30 | – | – | – |
| O=S(=O)(Nc1ccc2c(/C=C/c3ccccc3)cccc2c1)C(F)(F)F | 5.12 | – | – | < 4.30 |
| O=C(O)c1ccc(C(=O)Nc2ccc3c(OCc4cccc(C(F)(F)F)c4)cccc3c2)cc1 | 5.13 | > 50 µM | > 80 µM | – |
| O=C(Nc1ccc2c(/C=C/c3ccc4ccc(Cl)cc4n3)cccc2c1)NS(=O)(=O)c1ccc(Cl)cc1 | 5.33 | – | – | – |
| O=C(O)c1ccc(C(=O)Nc2ccc3c(OCc4cccc(Cl)c4)cccc3c2)cc1 | 5.29 | > 50 µM | > 80 µM | – |
| CN(c1ccc2c(/C=C/c3ccc4cc(Cl)ccc4n3)cccc2c1)S(=O)(=O)C(F)(F)F | < 4.30 | – | – | – |
| O=C(O)c1ccc(CNc2ccc3c(/C=C/c4ccc5ccc(Cl)cc5n4)cccc3c2)cc1 | 5.57 | – | – | – |
| CS(=O)(=O)Nc1ccc2c(/C=C/c3ccc4cc(Cl)ccc4n3)cccc2c1 | < 4.30 | – | – | – |
| O=C(O)c1ccc(CNc2ccc3c(COc4ccc(Br)cc4)cccc3c2)cc1 | 5.55 | > 50 µM | > 80 µM | – |
